Measured values published in patent US3948928A, “3-Substituted-1,2-benzisoxazoles and pharmaceutically acceptable acid addition salts thereof” (Dainippon Pharmaceutical Co., Ltd., priority 1972, dated 1976).
Structures can show the parent of a compound that is named as a salt.

What was measured:
[1] = test system: 1-dopa potentiating activity; test: 1-Dopa potentiating activity (mortality of mice given 1-dopa); type: in vivo, dd YS-mice; settings: one hour before 1-dopa 300 mg/kg i.p.
Description: To dd YS-mice, weighing 18 to 20 g (each group being 10 mice) was intraperitoneally administered 300 mg/kg of 1-dopa: 3-(3,4-dihydroxyphenyl)-L-alanine. The mice were entered into a plastic cage having 15 × 15 cm^2 in size and allowed to live gregariously and then the symptom of the mice was observed. The test compounds were orally administered to the mice at one hour before the administration of 1-dopa. The activity of the test compounds was calculated by the mortality.

[2] = test system: hypothermy induced by reserpine; test: Anti-reserpine activity: antagonism against the hypothermy induced by reserpine; type: in vivo, male dd YS-mice; settings: 100 mg/kg orally; for Inhibition (%): reserpine 5 mg/kg i.p. simultaneously, rectal temperature at 4 hours; for Ratio to AMT: inhibition relative to amitriptyline (AMT)
Description: The anti-reserpine activity of the test compounds was studied by the antagonism against the hypothermy induced by reserpine on male dd YS-mice, weighing 18 to 20 g, each group being 5 mice. The test compounds were orally administered in a dose of 100 mg/kg and simultaneously reserpine was intraperitoneally administered in a dose of 5 mg/kg to the mice. The body temperature was measured on the rectal temperature of the mice at 4 hours after the administration of the test compounds by thermister BMG III-130, made by Shibaura Electric Co., Ltd.

[3] = test system: spontaneously hypertensive rats; test: Anti-hypertensive activity in spontaneously hypertensive rats; type: in vivo, male Wistar rats
Description: The blood pressure was measured by plethysmographic method, in which the blood pressure was measured indirectly by using a tail of animal without anesthesia. That is, after being warmed at 38°C for 10 minutes, a tail of rat was pressed by cuff and then the pressure was relieved and thereby the blood flow started again to increase the volume of tail. The blood pressure at that time was measured.
Spontaneously hypertensive rats were prepared by using male Wistar rats weighing 300 to 350 g and being 20 or more weeks of age. […] The blood pressure in rats was measured at 0.5, 1, 3, 5, 7, 24 and 30 hours after the administration of the test compounds in the same manner as described in Test 3, (B).

renal hypertensive rats = test: Anti-hypertensive activity in renal hypertensive rats (plethysmographic tail blood pressure); type: in vivo, male Wistar rats
Description: Male Wistar rats weighing 180 to 200 g and having a blood pressure of 125 to 145 mmHg were anesthetized with ether and the left abdominal wall of rats was cut and thereby the renal artery was laid bare. The origin part of the aorta was stripped off and to the renal artery was fixed a silver clip which was made by two-folding at interval of 0.2 mm a silver thin board having 2.0 mm in width, 6.0 mm in length and 0.3 mm in thickness, and then the abdominal wall was stitched. At 2 months after the operation, the blood pressure of the rats was increased to 150 or more mmHg. The rats thus treated were used in the test as the renal hypertensive rats.
The blood pressure was measured before the administration of test compounds and at 0.5, 1, 3, 5, 7, 9 and 24 hours after the administration of the test compounds.

1,2-Benzisoxazole-3-acetamidoxime [Example 1]
Number of dead mice/number of used mice ([1]; dose 20 mg/kg orally): 1/10
Number of dead mice/number of used mice ([1]; dose 50 mg/kg orally): 3/10
Number of dead mice/number of used mice ([1]; dose 100 mg/kg orally): 7/10
Inhibition (%) [2]: 66.9%
Ratio to AMT [2]: 1.37
Blood pressure Decrease percent ([3]; 10 mg/kg p.o.): 16%
Blood pressure Duration ([3]; 10 mg/kg p.o.): 24 h
Blood pressure Peak time ([3]; 10 mg/kg p.o.): 5.0 h
Blood pressure Decrease percent (renal hypertensive rats; 3 mg/kg p.o.): 18.2%
Blood pressure Duration (renal hypertensive rats; 3 mg/kg p.o.): 24 h
Blood pressure Peak time (renal hypertensive rats; 3 mg/kg p.o.): 7 h
Blood pressure Decrease percent (renal hypertensive rats; 10 mg/kg p.o.): 36.3%
Blood pressure Duration (renal hypertensive rats; 10 mg/kg p.o.): 30 h
Blood pressure Peak time (renal hypertensive rats; 10 mg/kg p.o.): 7 h
Blood pressure Decrease percent (renal hypertensive rats; 30 mg/kg p.o.): 38.8%
Blood pressure Duration (renal hypertensive rats; 30 mg/kg p.o.): 48 h
Blood pressure Peak time (renal hypertensive rats; 30 mg/kg p.o.): 3 h

6,7-dimethoxy-1,2-benzisoxazole-3-acetamidoxime hydrochloride [Example 7]
Blood pressure Decrease percent (renal hypertensive rats; 100 mg/kg p.o.): 21.0%
Blood pressure Duration (renal hypertensive rats; 100 mg/kg p.o.): 72 h
Blood pressure Peak time (renal hypertensive rats; 100 mg/kg p.o.): 5 h

NC12CC3CC(CC(C3)C1)C2 [Amantadine, 1-aminoadamantane, reference compound]
Number of dead mice/number of used mice ([1]; dose 100 mg/kg orally): 0/10
Number of dead mice/number of used mice ([1]; dose 200 mg/kg orally): 3/10
Number of dead mice/number of used mice ([1]; dose 300 mg/kg orally): 5/10

CN(C)CCC=C1c2ccccc2CCc2ccccc21 [Amitriptyline, 3-(10,11-Dihydro-5H-dibenzo[a,d]-cyclohepten-5-ylidene)-N,N-dimethylpropylamine, reference compound]
Inhibition (%) [2]: 48.9%

Cl.NC(Cc1noc2ccccc12)=NO [Test compound 2 (Table 1), 1,2-Benzisoxazole-3-acetamidoxime hydrochloride]
Inhibition (%) [2]: 64.9%
Ratio to AMT [2]: 1.33

Cl.N=C(N)Cc1noc2ccccc12 [Test compound 2 (Table 3), 1,2-Benzisoxazole-3-acetamidine hydrochloride]
Blood pressure Decrease percent (renal hypertensive rats; 100 mg/kg p.o.): 34.4%
Blood pressure Duration (renal hypertensive rats; 100 mg/kg p.o.): 30 h
Blood pressure Peak time (renal hypertensive rats; 100 mg/kg p.o.): 1 to 3 h

NC(Cc1noc2ccccc12)=NOC(=O)c1ccccc1 [Test compound 3 (Table 1), O-Benzoyl-1,2-benzisoxazole-3-acetamidoxime]
Inhibition (%) [2]: 57.1%
Ratio to AMT [2]: 1.17

Cl.N=C(Cc1noc2ccccc12)NN [Test compound 3 (Table 3), 1,2-Benzisoxazole-3-acetamidrazone hydrochloride]
Blood pressure Decrease percent (renal hypertensive rats; 100 mg/kg p.o.): 19.0%
Blood pressure Duration (renal hypertensive rats; 100 mg/kg p.o.): 24 h
Blood pressure Peak time (renal hypertensive rats; 100 mg/kg p.o.): 7 h

Cl.NC(Cc1noc2ccc(F)cc12)=NO [Test compound 3 (Table 4), 5-Fluoro-1,2-benzisoxazole-3-acetamidoxime hydrochloride]
Blood pressure Decrease percent ([3]; 1 mg/kg p.o.): 20%
Blood pressure Duration ([3]; 1 mg/kg p.o.): 24 h
Blood pressure Peak time ([3]; 1 mg/kg p.o.): 7 to 8 h
Blood pressure Decrease percent ([3]; 10 mg/kg p.o.): 22%
Blood pressure Duration ([3]; 10 mg/kg p.o.): 24 h
Blood pressure Peak time ([3]; 10 mg/kg p.o.): 7.0 h

Cc1cccc2c(CC3=NCCN3)noc12.Cl [Test compound 4 (Table 1), 7-Methyl-3-(2-imidazolin-2-yl)methyl-1,2-benzisoxazole hydrochloride]
Inhibition (%) [2]: 51.9%
Ratio to AMT [2]: 1.06

N=C(Cc1noc2ccccc12)N1CCN(c2ccccc2)CC1 [Test compound 4 (Table 3), 1-Phenyl-4-(1,2-benzisoxazole-3-acetimidoyl)piperazine hydrochloride]
Blood pressure Decrease percent (renal hypertensive rats; 100 mg/kg p.o.): 10.7%
Blood pressure Duration (renal hypertensive rats; 100 mg/kg p.o.): 30 h
Blood pressure Peak time (renal hypertensive rats; 100 mg/kg p.o.): 3 h

Cl.Fc1ccc2onc(CC3=NCCN3)c2c1 [Test compound 4 (Table 4), 5-Fluoro-3-(2-imidazolin-2-yl)methyl-1,2-benzisoxazole hydrochloride]
Blood pressure Decrease percent ([3]; 10 mg/kg p.o.): 28%
Blood pressure Duration ([3]; 10 mg/kg p.o.): 30 h
Blood pressure Peak time ([3]; 10 mg/kg p.o.): 7.0 h

COc1ccc2c(CC(N)=NO)noc2c1.Cl [Test compound 5 (Table 1), 6-Methoxy-1,2-benzisoxazole-3-acetamidoxime hydrochloride]
Inhibition (%) [2]: 69.2%
Ratio to AMT [2]: 1.42

CNC(=N)Cc1noc2ccccc12 [Test compound 5 (Table 3), 1,2-Benzisoxazole-3-(N-methyl)acetamidine hydrochloride]
Blood pressure Decrease percent (renal hypertensive rats; 100 mg/kg p.o.): 19.3%
Blood pressure Duration (renal hypertensive rats; 100 mg/kg p.o.): 24 h
Blood pressure Peak time (renal hypertensive rats; 100 mg/kg p.o.): 3 h

Cl.NC(CCc1noc2ccccc12)=NO [Test compound 6 (Table 1), 1,2-Benzisoxazole-3-propionamidoxime hydrochloride]
Inhibition (%) [2]: 58.1%
Ratio to AMT [2]: 1.12

Cl.Oc1ccc2onc(CC3=NCCN3)c2c1 [Test compound 6 (Table 3), 5-Hydroxy-3-(2-imidazolin-2-yl)methyl-1,2-benzisoxazole hydrochloride]
Blood pressure Decrease percent (renal hypertensive rats; 100 mg/kg p.o.): 56.5%
Blood pressure Duration (renal hypertensive rats; 100 mg/kg p.o.): 30 h
Blood pressure Peak time (renal hypertensive rats; 100 mg/kg p.o.): 5 h

Cl.Oc1ccc2c(CC3=NCCN3)noc2c1 [Test compound 7 (Table 3), 6-Hydroxy-3-(2-imidazolin-2-yl)methyl-1,2-benzisoxazole hydrochloride]
Blood pressure Decrease percent ([3]; 10 mg/kg p.o.): 14%
Blood pressure Duration ([3]; 10 mg/kg p.o.): 9 h
Blood pressure Peak time ([3]; 10 mg/kg p.o.): 7.0 h
